The numbers were not newly measured in patent US20110021626A1, “ENCAPSULATION OF VITAMIN C INTO WATER SOLUBLE DENDRIMERS” (CENTRE NATIONAL DE LA RECHERCHE SCIENTIFIQUE - CNRS, priority 2008, published 2011), which cites them from elsewhere.

For this series the following is noted: at 25° C. in water.

On to `O=C1O[C@H]([C@@H](O)CO)C(O)=C1O` [ascorbic acid], for which the pKa is 4,11.
